Assays:
PE052 primary cells = assay: Cell viability IC50 (CCK-8), primary cells PE052 from small cell lung cancer pleural effusion; assay type: cell-based; conditions: PE052, CCK-8
Procedure: (§1) (1) The pleural effusion was poured into a 15 mL or 50 mL of sterilized centrifuge tube for centrifugation. Centrifugation conditions: 800 to 1000 rpm, 5 min.
(§2) (2) The precipitate was resuspended and washed for 2 to 3 times with PBS.
(§3) (3) The cell precipitate was resuspended with complete culture medium (α-MEM medium containing 10% fetal bovine serum and 2% penicillin-streptomycin), and the flocculent matter in the pleural effusion was removed using a sterilized cell sieve.
(§4) (4) The red blood cells in the pleural effusion were removed with lymphocyte separation fluid, and the tumor cells and lymphocyte components were collected. The number of tumor cells was observed under a microscope, and the cells were inoculated.
(§5) (5) After 24 hours, the supernatant was discarded, and fresh culture medium was added for further culture.
(§6) (6) The cell growth status was observed, and it was determined based on the cell status whether the medium was required to be continuously changed to remove blood cells. When the cells grew to a density of 80% to 90%, the cells were preserved.
(§7) (1) Primary cells from lung cancer pleural effusion within 5 generations were cultured to the logarithmic growth phase. […] After centrifugation at room temperature, the supernatant was discarded, and the cell precipitate was resuspended with fresh complete culture medium. After counting, the cells were placed at room temperature for later use. The cells were inoculated into a 384-well plate at a density of 2000 cells/well with a volume of 40 μl/well. The wells at the outermost circle of the plate were not inoculated with cells, and instead, added with sterile water to reduce evaporation of the culture medium.
(§8) (2) After overnight culture of the cells, the medium was discarded, and a fresh medium containing different concentrations of compounds was added at 200 μl/well. The dilution method of the compound was as follows: first the compound with the highest concentration of 10 μM was prepared, and then the compound was diluted for 3 times in sequence. […] At the same time, a blank control group was set up, in which only an equal volume of culture medium was added without adding cells. Five replicate wells were set up for each group. The cells were placed in the incubator for further culture.
(§9) (3) After 72 hours, 8 μl of CCK-8 solution, which was double-diluted with 10 mM PBS, was added to each well, and the cells were shaken and placed in an incubator at 37° C. for further culture for 2 hours.
(§10) (4) The light absorbance value at 450 nm was read using a microplate reader, and the IC50 was calculated according to the absorbance value. The calculation method was the same as above.
(§11) (1) Sample information: PE039, PE052, and PE062 were all primary cell samples from pleural effusion of patients with small cell lung cancer, and LT015 was a primary cell sample from bronchoscopic biopsy of a patient with small cell lung cancer.
(§12) (2) CCK-8 detection was used to detect the IC50 values of different medicaments (compounds).

PE062 primary cells = assay: Cell viability IC50 (CCK-8), primary cells PE062 from small cell lung cancer pleural effusion; assay type: cell-based; conditions: PE062, CCK-8
Procedure: as §1, §2, §3, §4, §5, §6, §7, §8, §9, §10, §11, §12

NCI-H1792 cells = assay: Cell viability IC50 (MTT), AMG510-resistant NCI-H1792 cells; assay type: cell-based; conditions: Homo sapiens, NCI-H1792 cells (KRAS G12C)
Procedure: Non-small cell lung cancer cell lines NCI-H1975, NCI-H1650, and NCI-H1792 were cultured in RPMI-1640 medium containing 10% fetal bovine serum and 1% penicillin-streptomycin. 1% sodium pyruvate was additionally added when culturing NCI-H1975 cells. All the cells were cultured in a constant temperature incubator containing 5% CO2 at 37° C.
(1) The cells were cultured to the logarithmic growth phase. When the confluence reached about 90%, the cells were digested with 0.25% trypsin, and complete medium was added to collect the cells. After centrifugation at room temperature, the supernatant was discarded, and the cell precipitate was resuspended with fresh complete medium. […]
(5) The medium was carefully aspirated off, 100 μl of DMSO was added to dissolve the precipitate formed by the reaction with MTT, shaking and mixing to mix the blue-violet crystals well, and the light absorbance value at 492 nm was read with a microplate reader.
(6) IC50 of the compounds for different cells was calculated based on the light absorption value of each group. Specifically, the absorbance value under treatment with different concentrations of compounds was first subtracted from the absorbance value of the blank well, and then the absorbance value of the 0 μM group was taken as 100% to calculate the cell survival rate after treatment with different concentrations of compounds. […]

NCI-H446 cells = assay: Cell viability IC50 (CCK-8), small cell lung cancer cell line H446; assay type: cell-based; conditions: H446, CCK-8
Procedure: (§13) Small cell lung cancer cell lines DMS114, NCI-H1688, NCI-H82, NCI-H146, and NCI-H446 cells were cultured in RPMI-1640 medium containing 10% fetal bovine serum and 1% penicillin-streptomycin. All the cells were cultured in a constant temperature incubator containing 5% CO2 at 37° C.
(§14) Small cell lung cancer is a highly heterogeneous malignant tumor, and its clinical treatment is mainly based on traditional chemotherapy (mainly platinum medicaments and etoposide). In order to study the anti-tumor activity of the compounds of the present disclosure in small cell lung cancer, the CCK-8 method was used to investigate the cell viability IC50 of compound 8 for five small cell lung cancer cell lines.

NCI-H146 cells = assay: Cell viability IC50 (CCK-8), small cell lung cancer cell line H146; assay type: cell-based; conditions: H146, CCK-8
Procedure: as §13, §14

PE039 primary cells = assay: Cell viability IC50 (CCK-8), primary cells PE039 from small cell lung cancer pleural effusion; assay type: cell-based; conditions: PE039, CCK-8
Procedure: as §1, §2, §3, §4, §5, §6, §7, §8, §9
(4) The light absorbance value at 450 nm was read using a microplate reader, and the IC50 was calculated according to the absorbance value. The calculation method was the same as above. […]

NCI-H1688 cells = assay: Cell viability IC50 (CCK-8), small cell lung cancer cell line H1688; assay type: cell-based; conditions: H1688, CCK-8
Procedure: as §13, §14

LT015 primary cells = assay: Cell viability IC50 (CCK-8), primary cells LT015 from small cell lung cancer bronchoscopic biopsy; assay type: cell-based; conditions: LT015, CCK-8
Procedure: (1) The tissue blocks obtained from the tumor patients were transferred from the preservation solution to the pre-cooled HBSS buffer containing antibiotics, and the tissue blocks were washed for three times with the pre-cooled HBSS buffer.
(2) Tissue was sheared on ice with sterile surgical instruments until no obvious tissue blocks are visible to the naked eye, the tissue fluid was collected into a 15 ml centrifuge tube, and this process takes about 5 to 10 minutes.
(3) Digestive enzymes (collagenase I, collagenase IV and neutral protease being mixed in a ratio of 1:1:1, a concentration of stock solution was 10 mg/ml, diluted with PBS buffer or HBSS buffer, and the use concentration was 1 mg/ml) were added to the centrifuge tube, and after mixing well by pipetting, the centrifuge tube was placed in a 37° C. constant temperature incubator for 1 to 2 hours.
(4) High-glucose medium was added to the centrifuge tube to stop digestion. After mixing well, the cell precipitate was collected by centrifugation, and resuspended with MBM medium (Advanced DMEM-F12+20 ng/ml bFGF+50 ng/ml EGF+1% ITS-X+2% B27+10 μMY-27632+1% PS). The cell suspension was placed in a Matrigel-coated 24-well plate and cultured for 5 to 7 days. When the cell density in the well plate reaches 80-90%, the cells were sub-cultured into a 6 cm cell culture dish, and when they grew to a density of 80% to 90%, the cells were cryopreserved for preservation.
(1) Primary cells from lung cancer pleural effusion within 5 generations were cultured to the logarithmic growth phase. When the confluence reached about 90%, the cells were digested with 0.25% trypsin, and complete culture medium was added to collect the cells. After centrifugation at room temperature, the supernatant was discarded, and the cell precipitate was resuspended with fresh complete culture medium. After counting, the cells were placed at room temperature for later use. The cells were inoculated into a 384-well plate at a density of 2000 cells/well with a volume of 40 μl/well. The wells at the outermost circle of the plate were not inoculated with cells, and instead, added with sterile water to reduce evaporation of the culture medium.
as §8, §9, §10, §11, §12

PE043 primary cells = assay: Cell viability IC50 (CCK-8), primary cells PE043 from lung adenocarcinoma pleural effusion resistant to EGFR-TKI; conditions: read-out: cell viability IC50; PE043, CCK-8
NCI-H82 cells = assay: Cell viability IC50 (CCK-8), small cell lung cancer cell line H82; assay type: cell-based; conditions: H82, CCK-8
Procedure: as §13, §14

DMS114 cells = assay: Cell viability IC50 (CCK-8), small cell lung cancer cell line DMS114; assay type: cell-based; conditions: DMS114, CCK-8
Procedure: as §13, §14

[1] = tested on: small cell lung cancer cell line H446 cells; assay: In vivo antitumor effect in mice bearing small cell lung cancer cell line H446 cells (CDX model)
Procedure: H446 cells in the logarithmic growth phase were suspended in PBS solution, and then inoculated subcutaneously in the right forelimb of nude mice. The cell density was about 2×10^8 cells/mL, and each mouse was inoculated with 0.1 mL of the cell suspension, for a total of 80 mice. When the subcutaneous tumor grew to range from 50 mm^3 to 100 mm^3, 40 tumor-bearing mice were randomly divided into groups and numbered, and drug administration began.
(1) Vehicle blank control group: 5% DMSO+20% PEG 300+75% saline (normal saline);
The cycle repeated twice, and no medication for the final 6 days.
All tumor-bearing mice were killed after 20 days.

Row | Compound | IC50 (PE052 primary cells) | IC50 (PE062 primary cells) | IC50 (NCI-H1792 cells) | IC50 (NCI-H446 cells) | IC50 (NCI-H146 cells) | IC50 (PE039 primary cells) | IC50 (NCI-H1688 cells) | IC50 (LT015 primary cells) | IC50 (PE043 primary cells) | IC50 (NCI-H82 cells) | IC50 (DMS114 cells) | IC50 (NCI-H446 cells; Homo sapiens, NCI-H446) | IC50 (NCI-H146 cells; Homo sapiens, NCI-H146) | IC50 (NCI-H1688 cells; NCI-H1688) | IC50 (NCI-H82 cells; Homo sapiens, NCI-H82) | IC50 (DMS114 cells; Homo sapiens, DMS-114) | inhibitory effect on tumor volume growth compared with blank control (FIG. 1) ([1]; H446 CDX nude mice, intraperitoneal injection, 20 days) | animals survived ([1]; H446 CDX nude mice, intraperitoneal injection, 20 days, compound 8 and TP-0903 15 mg/kg once a day for 13 days, Cisplatin 2.5 mg/kg + Etoposide 4 mg/kg cycles) | body weight changes of nude mice (FIG. 2) ([1]; during the drug administration period, recovered rapidly after drug withdrawal)
1 | C=CC(=O)N1CCN(c2nc(=O)n(-c3c(C)ccnc3C(C)C)c3nc(-c4c(O)cccc4F)c(F)cc23)[C@@H](C)C1 [AMG510] | > 10000 nM | > 10000 nM | > 10000 nM | – | – | – | – | – | – | – | – | – | – | – | – | – | – | – | –
2 | N.N.[Cl][Pt][Cl] [Cisplatin] | 885 nM | 3210 nM | – | 559 nM | 3890 nM | 11100 nM | 14100 nM | 5460 nM | 31000 nM | 1760 nM | 2150 nM | – | – | – | – | – | – | – | –
3 | CN1CCN(Cc2ccc(Nc3ncc(Cl)c(Nc4ccccc4S(=O)(=O)N(C)C)n3)cc2)CC1 [TP-0903] | 210 nM | 5.1 nM | – | – | – | 134 nM | – | 94.3 nM | – | – | – | 276 nM | 1540 nM | 534 nM | 35 nM | 95.1 nM | no significant inhibitory effect on tumor volume growth | 11 of 12 | no significant decrease in body weight

From US20240360145A1, “PYRIMIDINE-2,4-DIAMINE DERIVATIVES AS WELL AS PREPARATION METHOD THEREFOR AND USE THEREOF” (LISEN THERAPEUTICS, INC., priority 2022, published 2024)
